Experimental data: publication PMC10786919, “Design-rules for stapled peptides with in vivo activity and their application to Mdm2/X antagonists” (Nature Communications, 2024)
Starred links: 1 amine or outer side, 2 acyl side, 3 side chain; linkers in the order of their positions; H or OH if unused. Positions of bridges follow the written chain, without caps; N, C: chain ends. Non-standard residues stand in square brackets, D forms with d. Residues, ends and D or L forms follow the SMILES beside them. dR8(desαMe) = O=C([C@@H](CCCCCCC=[*:3])N[*:1])[*:2]; Nle(6-ylidene) = O=C([C@H](CCCC=[*:3])N[*:1])[*:2]; 2Nal = N[C@@H](Cc1ccc2ccccc2c1)C(=O)O; tBuAla = CC(C)(C)C[C@H](N)C(=O)O; R8 = C=CCCCCCC[C@@](C)(N)C(=O)O; R5 = C=CCCC[C@@](C)(N)C(=O)O; S5 = C=CCCC[C@](C)(N)C(=O)O; Aib = CC(C)(N)C(=O)O

What was measured:
Type in all cases: cell-based
[1] = system: Jump-In T-REx CHO-K1 BLA cells; experiment: cells; details: 0% FBS 4Hr; for EC50: read-out: TETCHO: Counterscreen EC50
Description: This assay was based on Jump-In™ T-REx™ CHO-K1 BLA cells containing a stably integrated β-lactamase under the control of an inducible cytomegalovirus (CMV) promoter. Cells were maintained in Dulbecco’s […] Eagle Medium (DMEM) with 10% fetal bovine serum (FBS), Blasticidin, and Penicillin/Streptomycin and then transferred to 1.5 ml freezing vials and stored under liquid nitrogen in growth media containing 5% DMSO. […] Cells were seeded into a 384-well plate at a density of 4000 cells per well. Peptides were then dispensed to each well using a liquid handler, ECHO 555 and incubated for 16 h. The final working concentration of DMSO was 0.5%. β-lactamase activity was detected using the ToxBLAzer Dual Screen (Invitrogen), as per the manufacturer’s instructions. Measurements were carried out using the Envision multiplate reader (Perkin–Elmer). Counterscreen activity was defined as the amount of β-lactamase activity induced by tetracycline. Measurements were taken a minimum of three times (biological replicates) and values are reported as geometric means of the replicates.

[2] = system: HCT116 cells; experiment: Lactate dehydrogenase (LDH) release assay
In short: (§1)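 Membrane damage measured as lactate dehydrogenase release (CytoTox-ONE kit) from p53-responsive β-lactamase reporter HCT116 cells plated at 8000 per well. Final DMSO 0.5%; geometric mean reported from a minimum of three biological replicates.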

[3] = Lactate dehydrogenase (LDH) release assay; details: LDH: Cytotoxicity assay EC50
In short: as §1

[4] = system: p53 responsive β-lactamase reporter in HCT116 cells; experiment: cells; details: 0% FBS 4Hr; read-out: p53 reporter assay EC50
In short: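 Read-out used the ToxBLAzer Dual Screen for β-lactamase driven by a stably integrated p53-responsive reporter. Assay: 8000 HCT116 cells per well at 0.5% final DMSO. Reported numbers are geometric means over a minimum of three biological replicates.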

CC(=O)N[C@H](C(=O)N[C@@H](CO)C(=O)N[C@@H](Cc1ccccc1)C(=O)N[C@@H]1CCCCCCC=CCCC[C@@H](C(N)=O)NC(=O)[C@H](CC(C)(C)C)NC(=O)[C@H](CC(C)C)NC(=O)[C@H](C)NC(=O)[C@H](Cc2c[nH]c3ccccc23)NC(=O)[C@H](Cc2ccc(O)cc2)NC(=O)[C@H](CCC(=O)O)NC1=O)[C@@H](C)O [MP-150] (Ac-TSF[dR8(desαMe)]EYWAL[tBuAla][Nle(6-ylidene)]-NH2; staple 4-11)
TETCHO: Counterscreen % Effect [1]: -3.542% | EC50 [1]: > 50 µM | LDH: Cytotoxicity assay % Effect [2]: -0.7157% | EC50 [3]: > 50 µM | EC50 [4]: 22.3 µM

CC(=O)N[C@@H](CCCCN)C(=O)N[C@@H](CCCCN)C(=O)N[C@H](C(=O)N[C@@H](CO)C(=O)N[C@@H](Cc1ccccc1)C(=O)N[C@]1(C)CCCCCCC=CCCC[C@@](C)(C(N)=O)NC(=O)[C@H](CC(C)(C)C)NC(=O)[C@H](CC(C)C)NC(=O)[C@H](C)NC(=O)[C@H](Cc2c[nH]c3ccccc23)NC(=O)[C@H](Cc2ccc(O)cc2)NC(=O)[C@H](CCC(=O)O)NC1=O)[C@@H](C)O [MP-152] (Ac-KKTSF[R8]EYWAL[tBuAla][S5]-NH2; staple 6-13)
TETCHO: Counterscreen % Effect [1]: 34.57% | EC50 [1]: 36.5 µM | LDH: Cytotoxicity assay % Effect [2]: 49.97% | EC50 [3]: 17.2 µM | EC50 [4]: 19.3 µM

CC(=O)N[C@H](C(=O)N[C@@H](CO)C(=O)N[C@@H](Cc1ccccc1)C(=O)NC(C)(C)C(=O)N[C@@H](CCC(=O)O)C(=O)N[C@@H](Cc1ccc(O)cc1)C(=O)N[C@@H](Cc1c[nH]c2ccccc12)C(=O)N[C@@H](C)C(=O)N[C@@H](CC(C)C)C(=O)N[C@@H](CC(C)(C)C)C(=O)NC(C)(C)C(N)=O)[C@@H](C)O [MP-155] (Ac-TSF[Aib]EYWAL[tBuAla][Aib]-NH2)
TETCHO: Counterscreen % Effect [1]: -0.6205% | EC50 [1]: > 50 µM | LDH: Cytotoxicity assay % Effect [2]: -0.2131% | EC50 [3]: > 50 µM | EC50 [4]: 12.4 µM

CC(=O)N[C@H](C(=O)N[C@@H](CO)C(=O)N[C@@H](Cc1ccc2ccccc2c1)C(=O)NC(C)(C)C(=O)N[C@@H](CCC(=O)O)C(=O)N[C@@H](Cc1ccc(O)cc1)C(=O)N[C@@H](Cc1c[nH]c2ccccc12)C(=O)N[C@@H](C)C(=O)N[C@@H](CC(C)C)C(=O)N[C@@H](CC(C)C)C(=O)NC(C)(C)C(N)=O)[C@@H](C)O [MP-161] (Ac-TS[2Nal][Aib]EYWALL[Aib]-NH2)
TETCHO: Counterscreen % Effect [1]: 26.11% | EC50 [1]: 19.4 µM | LDH: Cytotoxicity assay % Effect [2]: -0.5798% | EC50 [3]: > 50 µM | EC50 [4]: 6.65 µM

CC(=O)N[C@H](C(=O)N[C@@H](CO)C(=O)N[C@@H](Cc1ccccc1)C(=O)N[C@]1(C)CCCCCCC=CCCC[C@@](C)(C(=O)O)NC(=O)[C@H](CC(C)C)NC(=O)[C@H](CC(C)C)NC(=O)[C@H](C)NC(=O)[C@H](Cc2c[nH]c3ccccc23)NC(=O)[C@H](Cc2ccc(O)cc2)NC(=O)[C@H](CCC(=O)O)NC1=O)[C@@H](C)O [MP-162]
TETCHO: Counterscreen % Effect [1]: 18.54% | EC50 [1]: 46.9 µM | LDH: Cytotoxicity assay % Effect [2]: 20.08% | EC50 [3]: > 50.7 µM | EC50 [4]: 36.2 µM

CC(=O)N[C@H](C(=O)N[C@@H](CO)C(=O)N[C@@H](Cc1ccccc1)C(=O)N[C@]1(C)CCCCCCC=CCCC[C@@](C)(C(N)=O)NC(=O)[C@H](CC(C)C)NC(=O)[C@H](CC(C)C)NC(=O)[C@H](C)NC(=O)[C@H](Cc2c[nH]c3ccccc23)NC(=O)[C@H](Cc2ccc(O)cc2)NC(=O)[C@H](CCC(N)=O)NC1=O)[C@@H](C)O [MP-163] (Ac-TSF[R8]QYWALL[S5]-NH2; staple 4-11)
TETCHO: Counterscreen % Effect [1]: 21.33% | EC50 [1]: > 50 µM | LDH: Cytotoxicity assay % Effect [2]: 6.049% | EC50 [3]: > 50 µM | EC50 [4]: 11.5 µM

CC(=O)N[C@H](C(=O)N[C@@H](CO)C(=O)N[C@@H](Cc1ccccc1)C(=O)N[C@]1(C)CCCCCCC=CCCC[C@@](C)(C(=O)NCCCCCC(=O)N[C@@H](CCCCN)C(N)=O)NC(=O)[C@H](CC(C)C)NC(=O)[C@H](CC(C)C)NC(=O)[C@H](C)NC(=O)[C@H](Cc2c[nH]c3ccccc23)NC(=O)[C@H](Cc2ccc(O)cc2)NC(=O)[C@H](CCC(=O)O)NC1=O)[C@@H](C)O [MP-164]
TETCHO: Counterscreen % Effect [1]: 0.7814% | EC50 [1]: > 50 µM | LDH: Cytotoxicity assay % Effect [2]: 4.255% | EC50 [3]: > 50 µM | EC50 [4]: 7.83 µM

CC(=O)N[C@H](C(=O)N[C@@H](CO)C(=O)N[C@@H](Cc1ccccc1)C(=O)N[C@]1(C)CCCC=CCCC[C@](C)(C(=O)N[C@@H](CC(C)C)C(=O)N[C@@H](CC(C)C)C(=O)N[C@@H](CO)C(=O)N[C@@H](CCC(=O)O)C(=O)N[C@@H](CC(N)=O)C(=O)N[C@@H](Cc2ccccc2)C(N)=O)NC(=O)[C@H](Cc2c[nH]c3ccccc23)NC(=O)[C@H](Cc2ccc(O)cc2)NC(=O)[C@H](CCC(=O)O)NC1=O)[C@@H](C)O [MP-167] (Ac-TSF[R5]EYW[R5]LLSENF-NH2; staple 4-8)
TETCHO: Counterscreen % Effect [1]: 22.82% | EC50 [1]: 12.1 µM | LDH: Cytotoxicity assay % Effect [2]: 34.73% | EC50 [3]: 26 µM | EC50 [4]: 8.78 µM

CC(=O)N[C@@H](CCCCN)C(=O)N[C@@H](CCCCN)C(=O)N[C@H](C(=O)N[C@@H](CO)C(=O)N[C@@H](Cc1ccccc1)C(=O)N[C@]1(C)CCCCCCC=CCCC[C@@](C)(C(=O)N[C@@H](CCC(=O)O)C(N)=O)NC(=O)[C@H](CC(C)(C)C)NC(=O)[C@H](CC(C)C)NC(=O)[C@H](C)NC(=O)[C@H](Cc2c[nH]c3ccccc23)NC(=O)[C@H](Cc2ccc(O)cc2)NC(=O)[C@H](CCC(=O)O)NC1=O)[C@@H](C)O [MP-1159] (Ac-KKTSF[R8]EYWAL[tBuAla][S5]E-NH2; staple 6-13)
TETCHO: Counterscreen % Effect [1]: 44.44% | EC50 [1]: 49.2 µM | LDH: Cytotoxicity assay % Effect [2]: -1.606% | EC50 [3]: > 50 µM | EC50 [4]: 5.08 µM

CC(=O)N[C@H](C(=O)N[C@@H](CO)C(=O)N[C@@H](Cc1ccccc1)C(=O)N[C@]1(C)CCCCCCC=CCCC[C@@](C)(C(=O)N[C@@H](CCC(=O)O)C(=O)N[C@@H](CC(N)=O)C(=O)N[C@@H](Cc2ccccc2)C(N)=O)NC(=O)[C@H](CC(C)C)NC(=O)[C@H](CC(C)C)NC(=O)[C@H](C)NC(=O)[C@H](Cc2c[nH]c3ccccc23)NC(=O)[C@H](Cc2ccc(O)cc2)NC(=O)[C@H](CCC(=O)O)NC1=O)[C@@H](C)O [MP-1169]
TETCHO: Counterscreen % Effect [1]: 11.25% | EC50 [1]: > 50 µM | LDH: Cytotoxicity assay % Effect [2]: 37.3% | EC50 [3]: 34.1 µM | EC50 [4]: 5.34 µM

CC(=O)N[C@H](C(=O)N[C@@H](CO)C(=O)N[C@@H](Cc1ccccc1)C(=O)N[C@]1(C)CCCCCCC=CCCC[C@@](C)(C(=O)N[C@@H](CCC(=O)O)C(=O)N[C@@H](CC(N)=O)C(=O)N[C@@H](Cc2ccc(O)cc2)C(N)=O)NC(=O)[C@H](CC(C)C)NC(=O)[C@H](CC(C)C)NC(=O)[C@H](C)NC(=O)[C@H](Cc2c[nH]c3ccccc23)NC(=O)[C@H](Cc2ccc(O)cc2)NC(=O)[C@H](CCC(=O)O)NC1=O)[C@@H](C)O [MP-1170]
TETCHO: Counterscreen % Effect [1]: 61.75% | EC50 [1]: 36.8 µM | LDH: Cytotoxicity assay % Effect [2]: 6.762% | EC50 [3]: > 50 µM | EC50 [4]: 16.7 µM

CC(=O)N[C@H](C(=O)N[C@@H](CO)C(=O)N[C@@H](Cc1ccccc1)C(=O)N[C@]1(C)CCCC=CCCC[C@](C)(C(=O)N[C@@H](CC(C)C)C(=O)N[C@@H](CC(C)C)C(=O)N2CCC[C@H]2C(=O)N[C@@H](CCC(N)=O)C(=O)N[C@@H](CC(N)=O)C(=O)N[C@@H](Cc2ccccc2)C(N)=O)NC(=O)[C@H](Cc2c[nH]c3ccccc23)NC(=O)[C@H](Cc2ccc(O)cc2)NC(=O)[C@H](CCC(=O)O)NC1=O)[C@@H](C)O [MP-1173] (Ac-TSF[R5]EYW[R5]LLPQNF-NH2; staple 4-8)
TETCHO: Counterscreen % Effect [1]: 47.5% | EC50 [1]: 28.3 µM | LDH: Cytotoxicity assay % Effect [2]: 16.65% | EC50 [3]: > 50 µM | EC50 [4]: 12.5 µM

CC(=O)N[C@H](C(=O)N[C@@H](CO)C(=O)N[C@@H](Cc1ccccc1)C(=O)N[C@]1(C)CCCC=CCCC[C@](C)(C(=O)N[C@@H](CC(C)C)C(=O)N[C@@H](CC(C)C)C(=O)N2CCC[C@H]2C(N)=O)NC(=O)[C@H](Cc2c[nH]c3ccccc23)NC(=O)[C@H](Cc2ccc(O)cc2)NC(=O)[C@H](CCC(=O)O)NC1=O)[C@@H](C)O [MP-1174] (Ac-TSF[R5]EYW[R5]LLP-NH2; staple 4-8)
TETCHO: Counterscreen % Effect [1]: 7.183% | EC50 [1]: > 50 µM | LDH: Cytotoxicity assay % Effect [2]: 2.374% | EC50 [3]: > 50 µM | EC50 [4]: 18.7 µM

CC(=O)N[C@H](C(=O)N[C@@H](CO)C(=O)N[C@@H](Cc1ccccc1)C(=O)NC(C)(C)C(=O)N[C@@H](CCC(=O)O)C(=O)N[C@@H](Cc1ccc(O)cc1)C(=O)N[C@@H](Cc1c[nH]c2ccccc12)C(=O)N[C@@H](C)C(=O)N[C@@H](CC(C)C)C(=O)N[C@@H](CC(C)C)C(=O)NC(C)(C)C(=O)N[C@@H](CCC(=O)O)C(N)=O)[C@@H](C)O [MP-1176]
TETCHO: Counterscreen % Effect [1]: -0.7808% | EC50 [1]: > 50 µM | LDH: Cytotoxicity assay % Effect [2]: 12.95% | EC50 [3]: > 50 µM | EC50 [4]: > 50 µM
